Laboratory results: ChEMBL document CHEMBL1128336, “Synthetic routes to 4-amino-3-carboxy-beta-carboline derivatives: incidental formation of novel furo[3,4-c]-beta-carbolin-2-ones displaying high affinities for the benzodiazepine receptor” (J Med Chem, 1995)

Target: GABA-A receptor; anion channel
Experiment: In vitro displacement of [3H]flunitrazepam from GABA-A central benzodiazepine receptor of rat cerebral cortex membranes
Assay type: cell membranes, Membrane

| SMILES | IC50 [nM] |
| --- | --- |
| CCOC(=O)CN1C(=O)c2[nH]cc3nc4ccccc4c-3c2C1O (stereo not drawn) | 70 |
| O=C1OC(=O)c2c1[nH]cc1nc3ccccc3c2-1 | 150 |
| O=C1OC(O)c2c1[nH]cc1nc3ccccc3c2-1 (stereo not drawn) | 47 |
| CC1OC(=O)c2[nH]cc3nc4ccccc4c-3c21 (stereo not drawn) | 20 |
| COC(=O)c1cc2c(cn1)[nH]c1ccccc12 [BETA-CCM] | 2 |

The remaining molecules from weak to strong by IC50, led by results:

| IC50 [nM] | SMILES |
| --- | --- |
| 20 | CCOC1OC(=O)c2[nH]cc3nc4ccccc4c-3c21 (stereo not drawn) |
| 12 | COC1OC(=O)c2[nH]cc3nc4ccccc4c-3c21 (stereo not drawn) |
| 0.2 | O=C1OC(CO)c2c1[nH]cc1nc3ccccc3c2-1 (stereo not drawn) |
